From patent US20130310379A1, “MODULATORS OF METHYL MODIFYING ENZYMES, COMPOSITIONS AND USES THEREOF” (CONSTELLATION PHARMACEUTICALS, priority 2010, published 2013)

Key:
Y641N EZH2 = Y641N EZH2 (Homo sapiens, UniProt Q15910, Y641N); test: Y641N EZH2 assay: performed as the EZH2 assay, using reconstituted H3K27Me2 oligonucleosomes as substrate; assay type: biochemical
Procedure: Assays were carried out by mixing rPRC2 together with biotinylated oligonucleosome substrates in the presence of the radio-labeled enzyme co-factor, S-adenosyl-L-methionine (^3H SAM) (Perkin Elmer) and monitoring the enzymatically mediated transfer of tritiated methyl groups from ^3H SAM to histone lysine residues. The amount of resulting tritated methylhistone product was measured by first capturing the biotinylated oligonuclesomes in streptavidin (SAV) coated FlashPlates (Perkin Elmer), followed by a wash step to remove un-reacted ^3H SAM, and then counting on a TopCount NXT 384 well plate scintillation counter (Perkin Elmer). The final assay conditions for EZH2 were as follows: 50 mM Tris Buffer pH 8.5, 1 mM DTT, 69 uM Brij-35 detergent, 5.0 mM MgCl2, 0.1 mg/mL BSA, 0.2 uM ^3H SAM, 0.2 uM biotinylated oligonucleosomes, 3.6 uM H3K27me3 peptide and 2 nM EZH2.
Compound IC50 measurements were obtained as follows: Compounds were first dissolved in 100% DMSO as 10 mM stock solutions. […] A 12.5 uL volume of the HMT enzyme, H3K27me3 peptide and oligonucleosome substrate in assay buffer was added to each well of the assay plate using a Multidrop Combi (ThermoFisher). Compounds were pre-incubated with the enzyme for 20 min, followed by initiation of the methyltransferase reaction by addition of 12.5 uL of 3H SAM in assay buffer (final volume=25 uL). The final concentrations of compounds ranged from a top default concentration of 80 uM down to 0.16 uM in ten 2-fold dilution steps. Reactions were carried out for 60 minutes and quenched with 20 uL per well of 1.96 mM SAH, 50 mM Tris PH 8.5, 200 mM EDTA. Stopped reactions were transferred to SAV coated Flashplates (Perkin Elmer), incubated for 120 min, washed with a plate washer, and then read on the TopCount NXT (1.0 min/well) to measure the amount of methylhistone product formed during the reaction. The amount of methylhistone product was compared with the amount of product formed in the 0% and 100% inhibition control wells allowing the calculation of % Inhibition in the presence of the individual compounds at various concentrations. IC50's were computed using a 4 parameter fit non-linear curve fitting software package (XLFIT, part of the database package, ActivityBase (IDBS)) where the four parameters were IC50, Hill slope, pre-transitional baseline (0% INH), and post-transitional baseline (100% INH); with the latter two parameters being fixed to zero and 100%, respectively, by default.

EZH2 = EZH2 (Homo sapiens, UniProt Q15910); test: EZH2 assay: rPRC2 with biotinylated oligonucleosome substrates and 3H SAM, FlashPlate scintillation counting, IC50; assay type: biochemical; conditions: rPRC2, biotinylated oligonucleosome substrates, 3H SAM; read-out: EZH2 IC50
Method in brief: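 rPRC2 (2 nM EZH2) pre-incubated 20 min with compound (80 to 0.16 uM, ten 2-fold steps), then 60 min reaction with 0.2 uM 3H SAM, 0.2 uM biotinylated oligonucleosomes, 3.6 uM H3K27me3 peptide in Tris pH 8.5. SAH/EDTA quench; 4-parameter IC50 fit.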

Sequence of Y641N EZH2 (Q15910 whole entry Y641N): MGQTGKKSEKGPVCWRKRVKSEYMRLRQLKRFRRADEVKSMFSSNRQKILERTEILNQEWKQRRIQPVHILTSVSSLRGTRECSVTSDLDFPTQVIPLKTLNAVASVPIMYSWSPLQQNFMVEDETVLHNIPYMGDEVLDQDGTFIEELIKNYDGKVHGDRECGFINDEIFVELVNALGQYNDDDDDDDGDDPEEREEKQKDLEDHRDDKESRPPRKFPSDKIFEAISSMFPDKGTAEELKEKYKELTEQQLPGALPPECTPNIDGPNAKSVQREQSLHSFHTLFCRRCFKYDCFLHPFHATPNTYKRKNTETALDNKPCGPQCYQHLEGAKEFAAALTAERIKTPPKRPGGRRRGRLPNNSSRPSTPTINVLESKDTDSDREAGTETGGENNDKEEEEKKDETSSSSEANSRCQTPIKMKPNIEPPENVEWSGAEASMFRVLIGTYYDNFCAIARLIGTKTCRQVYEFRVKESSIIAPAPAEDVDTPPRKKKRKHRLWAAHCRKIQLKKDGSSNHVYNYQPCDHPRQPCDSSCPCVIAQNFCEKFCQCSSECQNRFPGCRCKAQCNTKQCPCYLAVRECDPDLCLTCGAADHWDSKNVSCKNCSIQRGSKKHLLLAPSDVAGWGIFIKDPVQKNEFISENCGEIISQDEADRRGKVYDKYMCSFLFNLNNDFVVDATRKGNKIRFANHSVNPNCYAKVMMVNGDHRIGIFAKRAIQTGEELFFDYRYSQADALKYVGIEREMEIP
Sequence of Y641N EZH2 (O75530 whole entry partner): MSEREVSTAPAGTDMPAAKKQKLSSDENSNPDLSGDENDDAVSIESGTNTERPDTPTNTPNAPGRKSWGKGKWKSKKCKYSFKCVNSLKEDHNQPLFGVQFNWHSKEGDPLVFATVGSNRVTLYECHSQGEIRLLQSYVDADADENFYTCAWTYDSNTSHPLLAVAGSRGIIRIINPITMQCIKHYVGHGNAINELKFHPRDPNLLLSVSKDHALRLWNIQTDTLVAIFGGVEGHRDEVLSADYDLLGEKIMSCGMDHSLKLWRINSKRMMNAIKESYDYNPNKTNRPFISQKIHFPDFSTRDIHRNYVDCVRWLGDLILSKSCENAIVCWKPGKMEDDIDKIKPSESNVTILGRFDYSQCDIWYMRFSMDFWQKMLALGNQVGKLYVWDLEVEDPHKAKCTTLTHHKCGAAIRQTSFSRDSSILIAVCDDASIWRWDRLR
Sequence of Y641N EZH2 (Q15022 whole entry partner): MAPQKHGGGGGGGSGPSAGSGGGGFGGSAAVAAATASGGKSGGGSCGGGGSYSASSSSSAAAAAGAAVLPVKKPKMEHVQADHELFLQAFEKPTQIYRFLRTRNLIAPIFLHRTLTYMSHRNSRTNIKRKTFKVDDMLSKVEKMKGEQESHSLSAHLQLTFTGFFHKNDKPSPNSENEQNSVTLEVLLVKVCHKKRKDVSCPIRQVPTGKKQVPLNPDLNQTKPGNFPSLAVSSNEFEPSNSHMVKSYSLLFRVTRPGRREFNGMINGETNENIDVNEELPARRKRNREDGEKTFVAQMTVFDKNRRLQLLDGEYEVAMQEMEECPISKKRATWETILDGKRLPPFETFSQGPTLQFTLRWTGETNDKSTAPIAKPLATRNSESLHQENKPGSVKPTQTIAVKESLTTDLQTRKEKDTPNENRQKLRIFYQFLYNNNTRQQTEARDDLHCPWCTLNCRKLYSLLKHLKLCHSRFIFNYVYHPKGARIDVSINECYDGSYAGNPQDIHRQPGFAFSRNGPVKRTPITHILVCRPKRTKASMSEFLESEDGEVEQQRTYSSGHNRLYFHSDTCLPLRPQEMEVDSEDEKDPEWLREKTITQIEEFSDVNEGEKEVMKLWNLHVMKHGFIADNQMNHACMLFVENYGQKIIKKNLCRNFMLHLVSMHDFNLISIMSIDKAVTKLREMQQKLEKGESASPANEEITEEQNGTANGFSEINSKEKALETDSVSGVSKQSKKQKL
Sequence of EZH2 (Q15910 whole entry): as the sequence (Q15910 whole entry Y641N) above, with N641Y counted along it
Sequence of EZH2 (O75530 whole entry partner): as the sequence (O75530 whole entry partner) above
Sequence of EZH2 (Q15022 whole entry partner): as the sequence (Q15022 whole entry partner) above

## CC1(C)CC(N2CCc3cc(Oc4ccccc4C#N)c(Cl)cc3C2=O)CC(C)(C)N1 [Compound I-163]
Y641N EZH2
  IC50: > 80 µM
EZH2
  IC50: 20 to 80 µM

## COc1cc(-c2cccc(Oc3ccc(C(=O)NC4CC(C)(C)NC(C)(C)C4)cc3Cl)c2C#N)cc(C)n1 [Compound I-573]
Y641N EZH2
  IC50: 5 to 20 µM
EZH2
  IC50: < 5 µM

## CC1(C)CC(NC(=O)c2ccc(Oc3cccc(-c4ccc(N)nc4)c3)cc2)CC(C)(C)N1 [Compound I-228]
Y641N EZH2
  IC50: > 80 µM
EZH2
  IC50: 5 to 20 µM

## CC1(C)CC(NC(=O)c2ccc(Oc3cccc(-c4ccncn4)c3C#N)c(Cl)c2)CC(C)(C)N1 [Compound I-480, 3-Chloro-4-(2-cyano-3-(pyrimidin-4-yl)phenoxy)-N-(2,2,6,6-tetramethylpiperidin-4-yl)benzamide]
Y641N EZH2
  IC50: < 5 µM
EZH2
  IC50: < 5 µM

## CC1(C)CC(NC(=O)c2ccc(-n3ncc4ccccc43)c(Cl)c2)CC(C)(C)N1 [Compound I-327]
Y641N EZH2
  IC50: 5 to 20 µM
EZH2
  IC50: < 5 µM

## CC1(C)CC(NC(=O)c2ccc(Oc3cccc(N4CCCC4=O)c3)c(Cl)c2)CC(C)(C)N1 [Compound I-385]
Y641N EZH2
  IC50: > 80 µM
EZH2
  IC50: 5 to 20 µM

## CC(=O)N1CCC(c2cccc(Oc3ccc(C(=O)NC4CC(C)(C)NC(C)(C)C4)cc3)c2C#N)CC1 [Compound I-536]
Y641N EZH2
  IC50: 20 to 80 µM
EZH2
  IC50: < 5 µM

## CC1(C)CC(NC(=O)c2ccc(Oc3cccc(-c4cncc(C#N)c4)c3C#N)c(Cl)c2)CC(C)(C)N1 [Compound I-571]
Y641N EZH2
  IC50: < 5 µM
EZH2
  IC50: < 5 µM

## CCc1cccc(Oc2ccc(C(=O)NC3CC(C)(C)NC(C)(C)C3)cc2Cl)c1-c1ccncc1 [Compound I-342]
Y641N EZH2
  IC50: > 80 µM
EZH2
  IC50: 20 to 80 µM

## CC1(C)CC(NC(=O)c2ccc(Oc3cccc(I)c3C#N)c(Cl)c2)CC(C)(C)N1 [Compound I-257]
Y641N EZH2
  IC50: < 5 µM
EZH2
  IC50: < 5 µM

## CC1(C)CC(NC(=O)c2ccc(Oc3cccc(-c4cncnc4)c3C#N)c(Cl)c2)CC(C)(C)N1 [Compound I-340]
Y641N EZH2
  IC50: 5 to 20 µM
EZH2
  IC50: < 5 µM

## CC1(C)CC(NC(=O)c2ccc(Oc3cccc(F)c3C#N)c(Cl)c2)CC(C)(C)N1 [Compound I-258]
Y641N EZH2
  IC50: < 5 µM
EZH2
  IC50: < 5 µM

## CC1(C)CC(NC(=O)c2ccc(Oc3cccc(-c4ccccn4)c3C#N)c(Cl)c2)CC(C)(C)N1 [Compound I-367]
Y641N EZH2
  IC50: < 5 µM
EZH2
  IC50: < 5 µM

## CC1(C)CC(NC(=O)c2ccc(Oc3cccc(-c4ccnc(O)c4)c3C#N)c(Cl)c2)CC(C)(C)N1 [Compound I-583]
Y641N EZH2
  IC50: < 5 µM
EZH2
  IC50: < 5 µM

## Cc1cnccc1-c1cccc(Oc2ccc(C(=O)NC3CC(C)(C)NC(C)(C)C3)cc2Cl)c1C#N [Compound I-572]
Y641N EZH2
  IC50: < 5 µM
EZH2
  IC50: < 5 µM

## CC1(C)CC(NC(=O)c2ccc(COc3ccccc3Br)cc2)CC(C)(C)N1 [Compound I-185]
Y641N EZH2
  IC50: > 80 µM
EZH2
  IC50: 20 to 80 µM

## CC1(C)CC(NC(=O)c2ccc(Oc3cccc(-c4ccc(O)nc4)c3C#N)c(Cl)c2)CC(C)(C)N1 [Compound I-558]
Y641N EZH2
  IC50: < 5 µM
EZH2
  IC50: < 5 µM

## CCc1cccc(Oc2ccc(C(=O)NC3CC(C)(C)NC(C)(C)C3)cc2Br)c1C#N [Compound I-369]
Y641N EZH2
  IC50: < 5 µM
EZH2
  IC50: < 5 µM

## CC1(C)CC(NC(=O)N2CCC(Oc3cccc(-c4cn[nH]c4)c3C#N)CC2)CC(C)(C)N1 [Compound I-429]
Y641N EZH2
  IC50: > 80 µM
EZH2
  IC50: 20 to 80 µM

## Cc1cc(C(=O)NC2CC(C)(C)NC(C)(C)C2)ccc1Oc1ccccc1C#N [Compound I-223]
Y641N EZH2
  IC50: 5 to 20 µM
EZH2
  IC50: < 5 µM

## CC1(C)CC(NC(=O)c2ccc(COc3cccc(Br)c3)c(Br)c2)CC(C)(C)N1 [Compound I-216]
Y641N EZH2
  IC50: 20 to 80 µM
EZH2
  IC50: 5 to 20 µM

## Cc1cc(C(=O)NC2CC(C)(C)NC(C)(C)C2)ccc1Oc1cccc(-c2ccccc2)c1C#N [Compound I-260]
Y641N EZH2
  IC50: 20 to 80 µM
EZH2
  IC50: < 5 µM

## Cc1cc(C(=O)NC2CC(C)(C)NC(C)(C)C2)ccc1Oc1cccc(-c2cn[nH]c2)c1C#N [Compound I-262]
Y641N EZH2
  IC50: < 5 µM
EZH2
  IC50: < 5 µM

## CC1(C)CC(NC(=O)c2ccc(Cn3ccnc3)cc2)CC(C)(C)N1 [Compound I-404]
Y641N EZH2
  IC50: 20 to 80 µM
EZH2
  IC50: > 80 µM

## CC1(C)CC(NC(=O)c2ccc(Oc3cccc(-c4ccnc(C#N)c4)c3C#N)c(Cl)c2)CC(C)(C)N1 [Compound I-561]
Y641N EZH2
  IC50: < 5 µM
EZH2
  IC50: < 5 µM

## Cc1cc(C(=O)NC2CC(C)(C)NC(C)(C)C2)ccc1Oc1cccc(Br)c1C#N [Compound I-259]
Y641N EZH2
  IC50: < 5 µM
EZH2
  IC50: < 5 µM

## CC(Oc1cccc(Oc2ccc(C(=O)NC3CC(C)(C)NC(C)(C)C3)cc2Cl)c1C#N)C(N)=O (stereo not shown) [Compound I-326]
Y641N EZH2
  IC50: > 80 µM
EZH2
  IC50: 5 to 20 µM

## CC1(C)CC(NC(=O)c2ccc(Oc3cccc(Br)c3C#N)c(Cl)c2)CC(C)(C)N1 [Compound I-254]
Y641N EZH2
  IC50: < 5 µM
EZH2
  IC50: < 5 µM

## CC1(C)CC(NC(=O)c2ccc(Oc3ccccc3C#N)c(CCc3ccccc3)c2)CC(C)(C)N1 [Compound I-199]
Y641N EZH2
  IC50: 5 to 20 µM
EZH2
  IC50: < 5 µM

## Cc1ccc(-c2cccc(Oc3ccc(C(=O)NC4CC(C)(C)NC(C)(C)C4)cc3Cl)c2C#N)cn1 [Compound I-362]
Y641N EZH2
  IC50: 5 to 20 µM
EZH2
  IC50: < 5 µM

## CC1(C)CC(NC(=O)c2ccc(/C=C/c3ccccc3)cc2)CC(C)(C)N1 [Compound I-330]
Y641N EZH2
  IC50: > 80 µM
EZH2
  IC50: 20 to 80 µM

## CC1OC(=O)c2c(Oc3ccc(C(=O)NC4CC(C)(C)NC(C)(C)C4)cc3Cl)cccc21 (stereo not shown) [Compound I-401]
Y641N EZH2
  IC50: < 5 µM
EZH2
  IC50: < 5 µM

## CCc1cccc(Oc2ccc(C(=O)NC3CC(C)(C)NC(C)(C)C3)cc2Cl)c1-c1cccnc1 [Compound I-343]
Y641N EZH2
  IC50: 20 to 80 µM
EZH2
  IC50: 20 to 80 µM

## CCc1cccc(Oc2ccc(C(=O)NC3CC(C)(C)NC(C)(C)C3)cc2C)c1C#N [Compound I-266]
Y641N EZH2
  IC50: < 5 µM
EZH2
  IC50: < 5 µM

## CC(=O)N1CCN(c2cccc(Oc3ccc(C(=O)NC4CC(C)(C)NC(C)(C)C4)cc3Cl)c2)CC1 [Compound I-499]
Y641N EZH2
  IC50: > 80 µM
EZH2
  IC50: 20 to 80 µM

## CC1(C)CC(NC(=O)c2ccc(Oc3ccccc3C#N)c(-c3cn[nH]c3)c2)CC(C)(C)N1 [Compound I-213]
EZH2
  IC50: < 5 µM

## CC1(C)CC(NC(=O)c2ccc(Oc3ccccc3CN3CCCC3)cc2)CC(C)(C)N1 [Compound I-250]
EZH2
  IC50: 20 to 80 µM

## CCc1ccccc1Oc1ccc(C(=O)NC2CC(C)(C)NC(C)(C)C2)cc1 [Compound I-35]
EZH2
  IC50: 20 to 80 µM

## CC1(C)CC(NC(=O)c2ccc(Oc3cccc(-c4cccnc4N)c3C#N)c(Cl)c2)CC(C)(C)N1 [Compound I-361]
EZH2
  IC50: 5 to 20 µM

## CC1(C)CC(NC(=O)c2ccc(Oc3cccc4cccnc34)cc2)CC(C)(C)N1 [Compound I-331]
EZH2
  IC50: 20 to 80 µM

## CC1(C)CC(NC(=O)c2ccc(-n3ccc4c(O)cccc43)c(Cl)c2)CC(C)(C)N1 [Compound I-492]
EZH2
  IC50: < 5 µM

## CC1(C)CC(NC(=O)c2ccc(S(=O)(=O)c3ccccc3)cc2)CC(C)(C)N1 [Compound I-357]
EZH2
  IC50: > 80 µM

## CC1(C)CC(NC(=O)c2cc(F)c(Oc3ccccc3C#N)c(Br)c2)CC(C)(C)N1 [Compound I-351]
EZH2
  IC50: < 5 µM

## CN(C)Cc1ccccc1Oc1ccc(C(=O)NC2CC(C)(C)NC(C)(C)C2)cc1 [Compound I-275]
EZH2
  IC50: > 80 µM

## C#Cc1cccc(OCc2ccc(C(=O)NC3CC(C)(C)NC(C)(C)C3)cc2)c1 [Compound I-184]
EZH2
  IC50: < 5 µM

## CC1(C)CC(NC(=O)c2ccc(Oc3ccccc3C#N)c(-c3ccccc3)c2)CC(C)(C)N1 [Compound I-197]
EZH2
  IC50: < 5 µM

## CC1(C)CC(NC(=O)c2ccc(Oc3cccnc3)cc2)CC(C)(C)N1 [Compound I-21]
EZH2
  IC50: 20 to 80 µM

## CC1(C)CC(NC(=O)c2ccc(Oc3cccc(O)c3)cc2)CC(C)(C)N1 [Compound I-29]
EZH2
  IC50: 20 to 80 µM

## CC1(C)CC(NC(=O)c2ccc(Oc3ccccc3C3=CCNCC3)c(Cl)c2)CC(C)(C)N1 [Compound I-229]
EZH2
  IC50: 5 to 20 µM

## CC1(C)CC(NC(=O)c2ccc(Oc3ccccc3)cc2O)CC(C)(C)N1 [Compound I-122]
EZH2
  IC50: > 80 µM

## CC1(C)CC(NCc2ccc(Oc3ccccc3C#N)cc2)CC(C)(C)N1 [Compound I-306]
EZH2
  IC50: > 80 µM

## O=C(NC1CCN(C(=O)c2ccccc2)CC1)c1ccc(Oc2ccccc2)cc1 [Compound I-116]
EZH2
  IC50: > 80 µM

## CC1(C)CC(NC(=O)Nc2ccc(C(C)(C)C)cc2Br)CC(C)(C)N1 [Compound I-143]
EZH2
  IC50: > 80 µM
